According to the supplement of paper PMC10307832:

How the values were obtained:
Assay in all cases: relative viability (nuclei count vs DMSO), 5 days (fraction); higher = more cells survive
TGX 221 + Vorinostat = compound: CC1=CN2C(=O)C=C(N=C2C(=C1)C(C)NC3=CC=CC=C3)N4CCOCC4 [TGX 221] + O=C(CCCCCCC(=O)Nc1ccccc1)NO [Vorinostat] (partner 1 µM)
In short: (§1)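 Cells from lung cancer lines were seeded into 1536-well plates and, one day later, dosed by pin tool. Treatments were either a single drug or a fixed dose of an anchor drug with five library-drug doses (not always all listed) in √10 steps. After 5 days, nuclei were stained in a one-step fixation (final 0.05% Triton X-100, 1% formaldehyde, 1 ug/ml Hoechst) and counted on 4× images, and relative viability is the treated-to-vehicle nuclei ratio, as the median of duplicate plates.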

[1] = compound: O=C(CCCCCCNC(=O)c1cnc(N(c2ccccc2)c2ccccc2)nc1)NO [Ricolinostat] + O=C(CCCCCCC(=O)Nc1ccccc1)NO [Vorinostat] (partner 1 µM)
In short: as §1

TGX 221 + Decitabine = compound: CC1=CN2C(=O)C=C(N=C2C(=C1)C(C)NC3=CC=CC=C3)N4CCOCC4 [TGX 221] + Nc1ncn([C@H]2C[C@H](O)[C@@H](CO)O2)c(=O)n1 [Decitabine] (partner 2 µM)
In short: as §1

TGX 221 + Crizotinib = compound: CC1=CN2C(=O)C=C(N=C2C(=C1)C(C)NC3=CC=CC=C3)N4CCOCC4 [TGX 221] + C[C@@H](Oc1cc(-c2cnn(C3CCNCC3)c2)cnc1N)c1c(Cl)ccc(F)c1Cl [Crizotinib] (partner 1 µM)
In short: as §1

Row | Cell Line | relative viability (TGX 221 + Vorinostat; first compound 0.08 µM) | relative viability (TGX 221 + Vorinostat; first compound 0.253 µM) | relative viability (TGX 221 + Vorinostat; first compound 0.8 µM) | relative viability (TGX 221 + Vorinostat; first compound 2.53 µM) | relative viability (TGX 221 + Vorinostat; first compound 8 µM) | relative viability ([1]; first compound 0.08 µM) | relative viability ([1]; first compound 0.253 µM) | relative viability ([1]; first compound 0.8 µM) | relative viability ([1]; first compound 2.53 µM) | relative viability (TGX 221 + Decitabine; first compound 0.08 µM) | relative viability (TGX 221 + Decitabine; first compound 0.253 µM) | relative viability (TGX 221 + Decitabine; first compound 0.8 µM) | relative viability (TGX 221 + Decitabine; first compound 2.53 µM) | relative viability (TGX 221 + Decitabine; first compound 8 µM) | relative viability (TGX 221 + Crizotinib; first compound 0.08 µM) | relative viability (TGX 221 + Crizotinib; first compound 0.253 µM) | relative viability (TGX 221 + Crizotinib; first compound 0.8 µM) | relative viability (TGX 221 + Crizotinib; first compound 2.53 µM) | relative viability (TGX 221 + Crizotinib; first compound 8 µM)
1 | NCI-H2126 | 0.832 | 0.741 | 0.768 | 0.615 | 0.717 | 0.456 | 0.796 | 0.684 | 0.485 | 0.568 | 0.567 | 0.633 | 0.55 | 0.554 | 0.992 | 1.04 | 0.963 | 0.975 | 0.966
2 | NCI-H2170 | 0.754 | 0.758 | 0.767 | 0.759 | 0.831 | 0.774 | 0.744 | 0.737 | 0.501 | 0.403 | 0.464 | 0.441 | 0.438 | 0.495 | 1.11 | 1.2 | 1.19 | 0.987 | 1.14
3 | NCI-H2347 | 0.745 | 0.506 | 0.478 | 0.618 | 0.465 | 0.449 | 0.567 | 0.55 | 0.469 | 0.564 | 0.504 | 0.582 | 0.558 | 0.597 | 0.67 | 0.666 | 0.635 | 0.701 | 0.542
4 | NCI-H2405 | 0.87 | 0.928 | 0.941 | 0.92 | 0.895 | 0.854 | 1.02 | 0.379 | 0.767 | 0.72 | 0.729 | 0.75 | 0.68 | 0.615 | 0.792 | 0.834 | 0.769 | 0.757 | 0.671
5 | NCI-H3122 | 1.02 | 0.823 | 1.08 | 0.969 | 1.04 | 0.966 | 0.848 | 0.853 | 0.708 | 0.405 | 0.33 | 0.422 | 0.378 | 0.548 | 0.278 | 0.227 | 0.281 | 0.294 | 0.356
6 | PC-3 [JPC-3] | 0.719 | 0.715 | 0.839 | 0.655 | 0.881 | 0.505 | 0.854 | 0.448 | 0.669 | 0.749 | 0.802 | 0.826 | 0.815 | 0.898 | 0.988 | 0.991 | 1.04 | 0.912 | 0.994
7 | PC-14 | 0.682 | 0.626 | 0.687 | 0.748 | 0.662 | 0.576 | 0.691 | 0.593 | 0.396 | 0.206 | 0.203 | 0.228 | 0.281 | 0.207 | 0.934 | 0.845 | 0.865 | 0.85 | 0.885
8 | RERF-LC-KJ | 0.684 | 0.708 | 0.678 | 0.69 | 0.678 | 0.583 | 0.657 | 0.639 | 0.434 | 0.632 | 0.75 | 0.762 | 0.692 | 0.678 | 0.736 | 0.832 | 0.752 | 0.781 | 0.795
